Assay results published in patent US20260138958A1, “SUBSTITUTED N-PHENYLURACILS AND SALTS THEREOF, AND USE THEREOF AS HERBICIDAL ACTIVE SUBSTANCES” (Bayer Aktiengesellschaft, priority 2022, published 2026).

Legend:
Type in all cases: in vivo
Lolium rigidum (LOLRI) = experiment: Post-emergence herbicidal action, greenhouse pot test
Protocol: (§1) Seeds of monocotyledonous and dicotyledonous weeds and crop plants were placed in sandy loam in plastic or wood-fibre pots, covered with soil and cultivated in a greenhouse under controlled growth conditions. 2 to 3 weeks after sowing, the test plants were treated at the one-leaf stage. The compounds of the invention, formulated in the form of wettable powders (WP) or as emulsion concentrates (EC), were then sprayed onto the green parts of the plants as aqueous suspension or emulsion with addition of 0.5% additive at a water application rate of 600 l/ha (converted). After the test plants had been kept in the greenhouse under optimum growth conditions for about 3 weeks, the activity of the preparations was rated visually in comparison to untreated controls. For example, 100% activity=the plants have died, 0% activity=like control plants.

[1] = test system: Digitaria sanguinalis (DIGSA); experiment: as above
Protocol: as §1

Setaria viridis (SETVI) = experiment: as above
Protocol: as §1

[2] = test system: Pharbitis purpurea (PHBPU); experiment: as above
Protocol: as §1

[3] = test system: Alopecurus myosuroides (ALOMY); experiment: as above
Protocol: as §1

Bassia scoparia (KCHSC) = experiment: as above
Protocol: as §1

Viola tricolor (VIOTR) = experiment: as above
Protocol: as §1

[4] = test system: Polygonum convolvulus (POLCO); experiment: as above
Protocol: as §1

[5] = test system: Echinochloa crus-galli (ECHCG); experiment: as above
Protocol: as §1

Veronica persica (VERPE) = experiment: as above
Protocol: as §1

[6] = test system: Amaranthus retroflexus (AMARE); experiment: as above
Protocol: as §1

[7] = test system: Tripleurospermum inodorum (MATIN); experiment: as above
Protocol: as §1

[8] = test system: Abutilon theophrasti (ABUTH); experiment: as above
Protocol: as §1

[9] = test system: Triticum aestivum (TRZAS); experiment: Post-emergence crop plant compatibility, greenhouse pot test
Protocol: as §1
The observed effects on selected crop plants are reported here in comparison to the untreated controls (values in %).

Row | SMILES | Post-emergence effect at 5 g/ha against DIGSA in % [1] [%] | Post-emergence effect at 20 g/ha against DIGSA in % [1] [%] | Post-emergence effect at 1.25 g/ha against SETVI in % (Setaria viridis (SETVI)) [%] | Post-emergence effect at 1.25 g/ha against KCHSC in % (Bassia scoparia (KCHSC)) [%] | Post-emergence effect at 5 g/ha against KCHSC in % (Bassia scoparia (KCHSC)) [%] | Post-emergence effect at 20 g/ha against KCHSC in % (Bassia scoparia (KCHSC)) [%] | Post-emergence effect at 1.25 g/ha against VIOTR in % (Viola tricolor (VIOTR)) [%] | Post-emergence effect at 5 g/ha against VIOTR in % (Viola tricolor (VIOTR)) [%] | Post-emergence effect at 5 g/ha against ECHCG in % [5] [%] | Post-emergence effect at 1.25 g/ha against VERPE in % (Veronica persica (VERPE)) [%] | Post-emergence effect at 1.25 g/ha against ABUTH in % [8] [%] | Post-emergence effect at 5 g/ha against SETVI in % (Setaria viridis (SETVI); 5 g/ha) [%] | Post-emergence effect at 20 g/ha against SETVI in % (Setaria viridis (SETVI); 20 g/ha) [%] | Post-emergence effect at 5 g/ha against PHBPU in % ([2]; 5 g/ha) [%] | Post-emergence effect at 20 g/ha against PHBPU in % ([2]; 20 g/ha) [%] | Post-emergence effect at 20 g/ha against ALOMY in % ([3]; 20 g/ha) [%] | Post-emergence effect at 20 g/ha against VIOTR in % (Viola tricolor (VIOTR); 20 g/ha) [%] | Post-emergence effect at 20 g/ha against POLCO in % ([4]; 20 g/ha) [%] | Post-emergence effect at 20 g/ha against ECHCG in % ([5]; 20 g/ha) [%] | Post-emergence effect at 5 g/ha against VERPE in % (Veronica persica (VERPE); 5 g/ha) [%] | also measured
1 | CC(OC(=O)COc1ccccc1Oc1cc(-n2c(=O)cc(C(F)(F)F)n(C)c2=O)c(F)cc1Cl)C1CC1 (stereo not shown) [I.7-2, 1-Cyclopropylethyl (2-{2-chloro-4-fluoro-5-[3-methyl-2,6-dioxo-4-(trifluoromethyl)-3,6-dihydropyrimidin-1(2H)-yl]phenoxy}phenoxy)acetate] | 100 | 100 | 100 | 100 | 100 | 100 | 100 | 100 | 100 | 100 | 80 | – | – | – | – | – | – | – | – | – | Post-emergence effect at 20 g/ha against LOLRI in % (Lolium rigidum (LOLRI)): 100%; Post-emergence effect at 1.25 g/ha against DIGSA in % ([1]; 1.25 g/ha): 100%; pest or weed control at 5 g/ha (Setaria viridis (SETVI); Setaria viridis, 504 h, 5 g/ha, read-out: Post-emergence effect at 5 g/ha against SETVI in %): 100%; pest or weed control at 20 g/ha (Setaria viridis (SETVI); Setaria viridis, 504 h, 20 g/ha, read-out: Post-emergence effect at 20 g/ha against SETVI in %): 100%; pest or weed control at 5 g/ha ([2]; Ipomoea purpurea, 504 h, 5 g/ha, read-out: Post-emergence effect at 5 g/ha against PHBPU in %): 100%; pest or weed control at 20 g/ha ([2]; Ipomoea purpurea, 504 h, 20 g/ha, read-out: Post-emergence effect at 20 g/ha against PHBPU in %): 100%; pest or weed control at 20 g/ha ([3]; Alopecurus myosuroides, 504 h, 20 g/ha, read-out: Post-emergence effect at 20 g/ha against ALOMY in %): 80%; pest or weed control at 20 g/ha (Viola tricolor (VIOTR); Viola tricolor, 504 h, 20 g/ha, read-out: Post-emergence effect at 20 g/ha against VIOTR in %): 100%; pest or weed control at 5 g/ha ([4]; Fallopia convolvulus, 504 h, 5 g/ha, read-out: Post-emergence effect at 5 g/ha against POLCO in %): 100%; pest or weed control at 20 g/ha ([4]; Fallopia convolvulus, 504 h, 20 g/ha, read-out: Post-emergence effect at 20 g/ha against POLCO in %): 100%; pest or weed control at 20 g/ha ([5]; Echinochloa crus-galli, 504 h, 20 g/ha, read-out: Post-emergence effect at 20 g/ha against ECHCG in %): 100%; pest or weed control at 5 g/ha (Veronica persica (VERPE); Veronica persica, 504 h, 5 g/ha, read-out: Post-emergence effect at 5 g/ha against VERPE in %): 100%; pest or weed control at 20 g/ha (Veronica persica (VERPE); Veronica persica, 504 h, 20 g/ha, read-out: Post-emergence effect at 20 g/ha against VERPE in %): 100%; pest or weed control at 1.25 g/ha ([6]; Amaranthus retroflexus, 504 h, 1.25 g/ha, read-out: Post-emergence effect at 1.25 g/ha against AMARE in %): 100%; pest or weed control at 5 g/ha ([6]; Amaranthus retroflexus, 504 h, 5 g/ha, read-out: Post-emergence effect at 5 g/ha against AMARE in %): 100%; pest or weed control at 20 g/ha ([6]; Amaranthus retroflexus, 504 h, 20 g/ha, read-out: Post-emergence effect at 20 g/ha against AMARE in %): 100%; pest or weed control at 20 g/ha ([7]; Tripleurospermum inodorum, 504 h, 20 g/ha, read-out: Post-emergence effect at 20 g/ha against MATIN in %): 100%; pest or weed control at 5 g/ha ([8]; Abutilon theophrasti, 504 h, 5 g/ha, read-out: Post-emergence effect at 5 g/ha against ABUTH in %): 100%; pest or weed control at 20 g/ha ([8]; Abutilon theophrasti, 504 h, 20 g/ha, read-out: Post-emergence effect at 20 g/ha against ABUTH in %): 100%; Post-emergence effect at 1.25 g/ha against TRZAS in % ([9]; Triticum aestivum, in vivo): 10%
2 | Cn1c(C(F)(F)F)cc(=O)n(-c2cc(Oc3ccccc3OCC(=O)OCC3(C)CC3)c(Cl)cc2F)c1=O [I.7-5] | 100 | 100 | 100 | 100 | 100 | 100 | 100 | 100 | 100 | 100 | 100 | 100 | 100 | 100 | 100 | 100 | 100 | 100 | 100 | 100 | Post-emergence effect at 1.25 g/ha against PHBPU in % ([2]; 1.25 g/ha): 100%; Post-emergence effect at 5 g/ha against ALOMY in % ([3]; 5 g/ha): 80%; Post-emergence effect at 20 g/ha against VERPE in % (Veronica persica (VERPE); 20 g/ha): 100%; Post-emergence effect at 1.25 g/ha against AMARE in % ([6]; 1.25 g/ha): 100%; Post-emergence effect at 5 g/ha against AMARE in % ([6]; 5 g/ha): 100%; Post-emergence effect at 20 g/ha against AMARE in % ([6]; 20 g/ha): 100%; Post-emergence effect at 5 g/ha against MATIN in % ([7]; 5 g/ha): 100%; Post-emergence effect at 20 g/ha against MATIN in % ([7]; 20 g/ha): 100%; Post-emergence effect at 5 g/ha against ABUTH in % ([8]; 5 g/ha): 100%; Post-emergence effect at 20 g/ha against ABUTH in % ([8]; 20 g/ha): 100%
3 | CC(OC(=O)COc1ccccc1Oc1cc(-n2c(=O)cc(C(F)(F)F)n(C)c2=O)c(F)cc1Cl)C1CCCCC1 (stereo not shown) [I.7-15] | – | 100 | – | – | 100 | 100 | – | 100 | 90 | 80 | – | 100 | 100 | 100 | 100 | 80 | 100 | 100 | 100 | 100 | Post-emergence effect at 20 g/ha against VERPE in % (Veronica persica (VERPE); 20 g/ha): 100%; Post-emergence effect at 1.25 g/ha against AMARE in % ([6]; 1.25 g/ha): 100%; Post-emergence effect at 5 g/ha against AMARE in % ([6]; 5 g/ha): 100%; Post-emergence effect at 20 g/ha against AMARE in % ([6]; 20 g/ha): 100%; Post-emergence effect at 20 g/ha against ABUTH in % ([8]; 20 g/ha): 100%; Post-emergence effect at 1.25 g/ha against TRZAS in % ([9]; crop plant, post-emergence, 1.25 g/ha): 20%
